Test results from patent publication US9352030B2, “Mycobacterium antigenic composition” (priority 2010, dated 2016).

How the values were obtained:
[1] = Conductivity determination (Malvern Zetasizer Nano); type: physicochemical
Experimental: A range of standards having sodium chloride concentrations of 0, 75, 100, 150, 250 and 300 mM were prepared from a stock solution of 1500 mM sodium chloride by dilution in water for injection.
Immunogenic compositions were prepared using M72 with two N-terminal His residues according to the procedures provided in Example 9. To investigate the contribution from the antigen itself and any residual materials in the purified bulk, placebo lyophilisation cakes were also prepared by excluding the antigen component.
Using a Malvern Zetasizer Nano and 1.5 ml of each sample in folded capillary cells, a voltage of 30 to 150 V (determined automatically by the instrument) was applied and the conductivity determined.

[2] = test system: chicken Red Blood cells (RBC); experiment: QS21 lytic activity haemolysis assay (limit test); type: cell-based; details: RBC 30 min RT, OD at 540 nm
Experimental: QS21 lytic activity was measured by a haemolysis assay using chicken Red Blood cells (RBC). RBC were centrifuged at 550 g at 4° C. Supernatant was discarded. The pellet was carefully resuspended in PBS buffer to reach the initial volume and the same operation was repeated until supernatant was no longer red (generally 3 times). The pellet was stored at 4° C. for 3 to 4 days maximum if not used directly (and washed again the day it is used) or was diluted around 10 times in buffer if used the same day.
A QS21 dose range curve was prepared in ASA buffer (in salt or in sorbitol buffer following the ASA sample tested) extemporaneously and the adjuvant samples (containing a 50 ug or 90 ug equivalent of QS21 meaning the equivalent of 500 ul or 900 ul ASA) were prepared. Final volume was adjusted to 900 ul in standards and samples with adequate buffer (containing or not sorbitol as a function of the buffer of the sample tested). Due to its opalescence, ASA interferes with optical density (OD). ASA “blanks” were thus prepared and their OD was subtracted from the OD of ASA tested samples. Those blanks corresponded to the same ASA volume as the volume tested in samples, but adjusted to 1 ml with buffer. No RBC were added to these blanks. Standards and samples were then incubated with RBC (100 ul of diluted RBC added to 900 ul of standards and samples) for 30 minutes at room temperature (RT). Samples were then centrifuged 5 minutes at 900 g. Optical density at 540 nm was measured after centrifugation.
Determination of lytic activity was carried out by a limit test.
1. Limit of detection (LOD) was defined as the lowest concentration of QS21 leading to an OD: • Higher than the base level (OD>0.1) • Around three times higher than OD's buffer (the “0 ug” QS21) • In the ascendant part of the curve • Determined for each test.
2. QS21 lytic activity was held to be positive in the adjuvant samples if the OD for the adjuvant sample was greater than the ODLOD).

[3] = Nephlometry of Rv1196 compositions with varied pH and NaCl after storage; type: physicochemical; details: 100 ug/ml; pH 6.1, 7.5, 8.5; 0, 150, 450 mM NaCl; 24 hours at 4° C. or 25° C.
Experimental: Rv1196 protein (SEQ ID No: 1) was obtained from Corixa Corporation and was diluted to a concentration of 100 ug/ml in three different buffers (10 mM phosphate buffer at pH 6.1, 20 mM Tris buffer at pH 7.5 and 20 mM Tris buffer at pH 8.5) containing final sodium chloride concentrations of 0, 150 and 450 mM.
Samples were stored for 24 hours at 4° C. or 25° C. before analysis.
Nephlometry was performed using a Nepheloskan® Ascent, available from Thermo Fischer Scientific. Analysis was performed in UV transparent Costar® micro-plates available from Corning Inc (USA).

[4] = DLS of Rv1196 compositions with varied pH and NaCl after storage; type: physicochemical; details: 100 ug/ml; pH 8.5
[5] = type: physicochemical; details: pH 7.5 or 8.5; sodium chloride 150 mM or greater
[6] = test system: M72-specific rabbit polyclonal antibody and M72(Mtb39)-specific mouse monoclonal antibody; experiment: M72 antigenicity sandwich ELISA, varied pH and NaCl (Example 10); type: binding; details: pH 7.5 or 8.5; sodium chloride 150 mM or greater
[7] = type: physicochemical; details: 100 ug/ml; pH 6.1, 7.5, 8.5; 0, 150, 450 mM NaCl; 24 hours at 4° C. or 25° C.
[8] = type: physicochemical; details: 100 ug/ml; pH 6.1, 7.5, 8.5; 0, 150, 450 mM NaCl; 24 hours at 4° C. or 25° C.; remark: listed apart in the source

With `[Cl-].[Na+]` [sodium chloride] the Conductivity ([1]; 75 mM sodium chloride standard in water for injection) was 8.2 mS/cm and the Conductivity ([1]; 300 mM sodium chloride standard in water for injection) was 30.0 mS/cm.

With QS21 the OD ([2]; 0.5 ug QS21 standard) was 0.052, the OD ([2]; 0.6 ug QS21 standard) was 0.073 and the OD ([2]; 0.7 ug QS21 standard) was 0.091. The OD ([2]; 0.8 ug QS21 standard) was 0.096 and the OD ([2]; 0.9 ug QS21 standard) was 0.12.

B1: Rv1196: Rv1196 protein (SEQ ID No: 1) from Mycobacterium tuberculosis H37Rv, obtained from Corixa Corporation (protein)
chain: MVDFGALPPEINSARMYAGPGSASLVAAAQMWDSVASDLFSAASAFQSVVWGLTVGSWIGSSAGLMVAAASPYVAWMSVTAGQAELTAAQVRVAAAAYETAYGLTVPPPVIAENRAELMILIATNLLGQNTPAIAVNEAEYGEMWAQDAAAMFGYAAATATATATLLPFEEAPEMTSAGGLLEQAAAVEEASDTAAANQLMNNVPQALQQLAQPTQGTTPSSKLGGLWKTVSPHRSPISNMVSMANNHMSMTNSGVSMTNTLSSMLKGFAPAAAAQAVQTAAQNGVRAMSSLGSSLGSSGLGGGVAANLGRAASVGSLSVPQAWAAANQAVTPAARALPLTSLTSAAERGPGQMLGGLPVGQMGARAGGGLSGVLRVPPRPYVMPHSPAAG
modifications: Mycobacterium tuberculosis H37Rv
In the case of B1, the “clarity by nephlometry with increasing salt concentration” value [3] is reported as “sensitive to salt concentration” and the “particle size by DLS” value [4] is reported as “concentration of sodium chloride impacts the measured particle size”.

B2: M72: fusion protein antigen comprising Rv1196, M72 with two N-terminal His residues, SEQ ID No: 7 (protein)
chain: MHHTAASDNFQLSQGGQGFAIPIGQAMAIAGQIRSGGGSPTVHIGPTAFLGLGVVDNNGNGARVQRVVGSAPAASLGISTGDVITAVDGAPINSATAMADALNGHHPGDVISVTWQTKSGGTRTGNVTLAEGPPAEFMVDFGALPPEINSARMYAGPGSASLVAAAQMWDSVASDLFSAASAFQSVVWGLTVGSWIGSSAGLMVAAASPYVAWMSVTAGQAELTAAQVRVAAAAYETAYGLTVPPPVIAENRAELMILIATNLLGQNTPAIAVNEAEYGEMWAQDAAAMFGYAAATATATATLLPFEEAPEMTSAGGLLEQAAAVEEASDTAAANQLMNNVPQALQQLAQPTQGTTPSSKLGGLWKTVSPHRSPISNMVSMANNHMSMTNSGVSMTNTLSSMLKGFAPAAAAQAVQTAAQNGVRAMSSLGSSLGSSGLGGGVAANLGRAASVGSLSVPQAWAAANQAVTPAARALPLTSLTSAAERGPGQMLGGLPVGQMGARAGGGLSGVLRVPPRPYVMPHSPAAGDIAPPALSQDRFADFPALPLDPSAMVAQVGPQVVNINTKLGYNNAVGAGTGIVIDPNGVVLTNNHVIAGATDINAFSVGSGQTYGVDVVGYDRTQDVAVLQLRGAGGLPSAAIGGGVAVGEPVVAMGNSGGQGGTPRAVPGRVVALGQTVQASDSLTGAEETLNGLIQFDAAIQPGDAGGPVVNGLGQVVGMNTAAS
modifications: M72 fusion with 2 additional his residues
With B2 the “change in antigen size” value [5] was “clear increase in antigen size” and the change in antigenicity [6] was “reduction in antigenicity”.

B3: Mtb72f: fusion protein antigen, Mtb72f with 6 his residues, SEQ ID No: 11 (protein)
chain: MHHHHHHTAASDNFQLSQGGQGFAIPIGQAMAIAGQIRSGGGSPTVHIGPTAFLGLGVVDNNGNGARVQRVVGSAPAASLGISTGDVITAVDGAPINSATAMADALNGHHPGDVISVTWQTKSGGTRTGNVTLAEGPPAEFMVDFGALPPEINSARMYAGPGSASLVAAAQMWDSVASDLFSAASAFQSVVWGLTVGSWIGSSAGLMVAAASPYVAWMSVTAGQAELTAAQVRVAAAAYETAYGLTVPPPVIAENRAELMILIATNLLGQNTPAIAVNEAEYGEMWAQDAAAMFGYAAATATATATLLPFEEAPEMTSAGGLLEQAAAVEEASDTAAANQLMNNVPQALQQLAQPTQGTTPSSKLGGLWKTVSPHRSPISNMVSMANNHMSMTNSGVSMTNTLSSMLKGFAPAAAAQAVQTAAQNGVRAMSSLGSSLGSSGLGGGVAANLGRAASVGSLSVPQAWAAANQAVTPAARALPLTSLTSAAERGPGQMLGGLPVGQMGARAGGGLSGVLRVPPRPYVMPHSPAAGDIAPPALSQDRFADFPALPLDPSAMVAQVGPQVVNINTKLGYNNAVGAGTGIVIDPNGVVLTNNHVIAGATDINAFSVGSGQTYGVDVVGYDRTQDVAVLQLRGAGGLPSAAIGGGVAVGEPVVAMGNSGGQGGTPRAVPGRVVALGQTVQASDSLTGAEETLNGLIQFDAAIQPGDSGGPVVNGLGQVVGMNTAAS
modifications: Mtb72f fusion with 6 additional his residues
With B3 the “nephlometry trend with salt concentration and pH” value [7] was “sensitive to salt concentration and pH” and the “DLS size trend with salt concentration and pH” value [8] was “sensitive to salt concentration and pH”.
